Data as given in paper PMC12155096 (International Journal of Molecular Sciences, 2025).
Counter-ions that a name gives are not always drawn. Like-named read-outs stand apart in the source and are kept apart here.

Key:
[1] = biological target: T1, CYP3A4 (Homo sapiens, UniProt P08684)
[2] = biological target: T2, human CYP1A2 (Homo sapiens, UniProt P05177); conditions: for CYP1A2 Efficacy (in parenthesis): human
T2 sequence (P05177 1-516): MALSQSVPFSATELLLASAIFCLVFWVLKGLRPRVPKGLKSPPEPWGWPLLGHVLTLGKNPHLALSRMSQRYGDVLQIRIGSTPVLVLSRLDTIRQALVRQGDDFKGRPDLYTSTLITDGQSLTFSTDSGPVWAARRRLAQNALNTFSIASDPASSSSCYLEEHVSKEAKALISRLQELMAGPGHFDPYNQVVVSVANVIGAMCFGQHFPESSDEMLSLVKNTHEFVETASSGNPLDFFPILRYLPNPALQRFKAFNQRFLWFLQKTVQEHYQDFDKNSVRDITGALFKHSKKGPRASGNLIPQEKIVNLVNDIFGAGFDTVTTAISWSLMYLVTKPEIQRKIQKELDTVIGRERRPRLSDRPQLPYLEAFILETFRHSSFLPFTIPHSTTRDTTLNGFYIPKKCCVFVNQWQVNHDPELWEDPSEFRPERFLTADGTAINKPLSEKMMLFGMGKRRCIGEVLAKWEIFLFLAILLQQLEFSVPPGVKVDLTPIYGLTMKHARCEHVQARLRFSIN

[3] = biological target: T3, human CYP2C19 (Homo sapiens, UniProt P33261); conditions: for CYP2C19 Efficacy (in parenthesis): human
[4] = biological target: T4, human CYP2C9 (Homo sapiens, UniProt P11712); conditions: for CYP2C9 Efficacy (in parenthesis): human
[5] = biological target: Photinus pyralis (firefly) luciferase (Photinus pyralis, UniProt P08659); experiment: biochemical; format: biochemical
[6] = biological target: T5, human CYP2D6 (Homo sapiens, UniProt P10635); experiment: biochemical; conditions: CYP2D6 IC50 (half-maximal inhibitory concentration)
[7] = biological target: T3, human CYP2C19; experiment: biochemical; conditions: CYP2C19 IC50 (half-maximal inhibitory concentration)
[8] = biological target: T2, human CYP1A2; experiment: biochemical; conditions: CYP1A2 IC50 (half-maximal inhibitory concentration)
[9] = biological target: T5, human CYP2D6; conditions: for CYP2D6 Efficacy (in parenthesis): human
[10] = biological target: T1, CYP3A4; experiment: biochemical
[11] = biological target: T4, human CYP2C9; experiment: biochemical; conditions: for IC50: CYP2C9 IC50 (half-maximal inhibitory concentration)
[12] = CYP3A4 AC50 (half-maximal activity concentration)
[13] = CYP2C9 AC50 (half-maximal activity concentration)

Chain of Photinus pyralis (firefly) luciferase (P08659 whole entry): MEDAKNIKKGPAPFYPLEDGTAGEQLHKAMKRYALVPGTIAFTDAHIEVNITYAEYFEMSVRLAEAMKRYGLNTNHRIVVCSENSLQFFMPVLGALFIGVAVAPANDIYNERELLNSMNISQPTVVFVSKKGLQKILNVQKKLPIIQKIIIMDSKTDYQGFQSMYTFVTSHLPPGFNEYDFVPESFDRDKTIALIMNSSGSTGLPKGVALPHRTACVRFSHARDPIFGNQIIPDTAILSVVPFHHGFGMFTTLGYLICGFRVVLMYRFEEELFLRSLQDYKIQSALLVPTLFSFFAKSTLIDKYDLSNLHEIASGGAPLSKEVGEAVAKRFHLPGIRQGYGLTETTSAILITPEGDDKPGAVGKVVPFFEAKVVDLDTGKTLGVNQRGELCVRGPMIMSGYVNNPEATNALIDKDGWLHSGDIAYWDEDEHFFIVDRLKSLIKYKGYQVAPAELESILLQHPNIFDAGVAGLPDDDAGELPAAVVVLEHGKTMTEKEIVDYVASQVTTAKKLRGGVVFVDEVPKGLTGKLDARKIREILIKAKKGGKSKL
T3 sequence (P33261 whole entry): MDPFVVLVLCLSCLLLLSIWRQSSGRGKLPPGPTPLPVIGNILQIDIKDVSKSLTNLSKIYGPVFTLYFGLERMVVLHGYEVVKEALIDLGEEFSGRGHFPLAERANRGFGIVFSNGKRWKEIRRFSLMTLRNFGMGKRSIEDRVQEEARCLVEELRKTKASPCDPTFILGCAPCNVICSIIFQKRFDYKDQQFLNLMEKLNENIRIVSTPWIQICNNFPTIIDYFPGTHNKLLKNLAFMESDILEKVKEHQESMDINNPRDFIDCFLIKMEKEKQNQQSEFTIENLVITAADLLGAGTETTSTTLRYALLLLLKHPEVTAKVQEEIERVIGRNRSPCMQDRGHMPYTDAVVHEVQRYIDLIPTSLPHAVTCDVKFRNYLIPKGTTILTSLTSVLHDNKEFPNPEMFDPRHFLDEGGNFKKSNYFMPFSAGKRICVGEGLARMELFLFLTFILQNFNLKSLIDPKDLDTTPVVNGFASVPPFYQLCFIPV
T1 sequence (P08684 whole entry): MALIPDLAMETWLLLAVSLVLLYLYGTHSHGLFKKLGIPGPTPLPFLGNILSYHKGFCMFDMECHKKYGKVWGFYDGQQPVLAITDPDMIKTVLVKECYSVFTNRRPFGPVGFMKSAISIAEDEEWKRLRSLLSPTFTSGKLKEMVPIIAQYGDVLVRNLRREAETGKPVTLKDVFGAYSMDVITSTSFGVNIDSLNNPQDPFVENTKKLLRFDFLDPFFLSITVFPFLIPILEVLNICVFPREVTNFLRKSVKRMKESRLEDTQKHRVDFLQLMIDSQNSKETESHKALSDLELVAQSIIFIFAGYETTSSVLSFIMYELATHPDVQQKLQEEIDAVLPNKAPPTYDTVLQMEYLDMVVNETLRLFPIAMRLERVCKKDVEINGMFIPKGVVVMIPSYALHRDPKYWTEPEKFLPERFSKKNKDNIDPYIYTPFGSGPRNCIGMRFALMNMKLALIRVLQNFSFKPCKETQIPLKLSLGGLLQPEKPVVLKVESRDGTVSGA
T4 sequence (P11712 whole entry): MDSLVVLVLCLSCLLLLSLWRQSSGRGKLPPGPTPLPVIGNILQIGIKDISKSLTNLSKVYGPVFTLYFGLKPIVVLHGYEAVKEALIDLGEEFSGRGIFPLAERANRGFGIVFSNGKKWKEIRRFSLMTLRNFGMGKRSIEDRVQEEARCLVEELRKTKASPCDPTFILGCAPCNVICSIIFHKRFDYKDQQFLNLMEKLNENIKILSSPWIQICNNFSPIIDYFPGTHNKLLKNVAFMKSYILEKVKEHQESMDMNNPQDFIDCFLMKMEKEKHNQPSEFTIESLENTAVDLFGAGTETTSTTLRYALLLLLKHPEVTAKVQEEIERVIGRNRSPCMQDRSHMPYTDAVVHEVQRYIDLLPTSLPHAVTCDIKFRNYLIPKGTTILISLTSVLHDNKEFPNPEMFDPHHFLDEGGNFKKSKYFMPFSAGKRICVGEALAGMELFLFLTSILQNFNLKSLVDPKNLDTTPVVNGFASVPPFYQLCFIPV
T5 sequence (P10635 whole entry): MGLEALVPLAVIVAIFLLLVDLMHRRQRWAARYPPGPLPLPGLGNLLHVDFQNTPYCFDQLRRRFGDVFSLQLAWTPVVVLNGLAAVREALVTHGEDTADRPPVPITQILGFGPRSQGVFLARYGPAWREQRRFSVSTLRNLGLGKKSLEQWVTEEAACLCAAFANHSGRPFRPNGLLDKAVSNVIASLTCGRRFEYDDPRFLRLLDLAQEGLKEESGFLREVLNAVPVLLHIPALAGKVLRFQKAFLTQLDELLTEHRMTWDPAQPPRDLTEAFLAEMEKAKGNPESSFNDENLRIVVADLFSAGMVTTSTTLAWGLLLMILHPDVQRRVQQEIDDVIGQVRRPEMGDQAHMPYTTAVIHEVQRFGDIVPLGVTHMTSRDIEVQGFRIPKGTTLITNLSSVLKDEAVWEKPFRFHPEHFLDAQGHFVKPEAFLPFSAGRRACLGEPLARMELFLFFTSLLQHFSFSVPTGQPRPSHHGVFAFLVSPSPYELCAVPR

Compound	CYP3A4 IC50 (half-maximal inhibitory concentration) [1]	CYP1A2 Efficacy (in parenthesis) [2]	CYP2C19 Efficacy (in parenthesis) [3]	Luciferase IC50 (half-maximal inhibitory concentration) [5]	IC50 [6]	IC50 [7]	IC50 [8]	CYP2D6 Efficacy (in parenthesis) [9]	AC50 [10, 12]	CYP1A2 AC50 (half-maximal activity concentration) [2]	CYP2C19 AC50 (half-maximal activity concentration) [3]	CYP2D6 AC50 (half-maximal activity concentration) [9]	also measured
O=[N+]([O-])c1ccc2ccc3cccc4ccc1c2c34 [1-Nitropyrene]	Inactive	0.27 ± 0.05 (-96 ± 5) %	14.04 ± 11.88 (-69 ± 19) %	Inactive	33 µM	14 µM	0.27 µM	33 ± 2.23 (-91 ± 22) %					CYP2C9 IC50 (half-maximal inhibitory concentration) [4]: Inactive
Clc1ccccc1-c1ccccc1Cl [2,2'-Dichlorobiphenyl]									14.6 µM	Inconclusive inhibitor	Inconclusive activator	Inactive	AC50 [11, 13]: 39 µM
CC(Oc1cc(Cl)c(Cl)cc1Cl)C(=O)O (stereo not drawn) [2-(2,4,5-Trichlorophenoxy)propionic acid]									76.9 µM	Inactive	Inactive	Inactive	AC50 [11, 13]: 28.4 µM
O=C(O)c1cc(Cl)cc(Cl)c1O [3,5-Dichlorosalicylic acid]										Inconclusive inhibitor	Inactive	Inactive	AC50 [10]: 37 µM; AC50 [11]: 28.3 µM
N#Cc1cc(Br)c(O)c(Br)c1 [Bromoxynil]									29.6 µM	Inactive	Inactive	Inactive	AC50 [11, 13]: 18.7 µM
Cc1ccc(S(=O)(=O)NCl)cc1 [Chloramine-T trihydrate]									67.9 µM	Inconclusive inhibitor	Inconclusive inhibitor	Inactive	AC50 [11, 13]: 81.6 µM
CC(=O)OCC(=O)[C@@]12N=C(C)O[C@@H]1C[C@H]1[C@@H]3CCC4=CC(=O)C=C[C@]4(C)[C@H]3[C@@H](O)C[C@@]12C [Deflazacort]									13.2 µM	Inactive	Inactive	Inactive	AC50 [11, 13]: 60.9 µM
OC(c1ccc(Cl)cc1)(c1ccc(Cl)cc1)C(Cl)(Cl)Cl [Dicofol]	Inactive	8.5 ± 4.94 (-106 ± 9) %	0.29 ± 0.44 (-153 ± 1) %	Inactive	44.8 µM	0.29 µM	8.5 µM	44.8 ± 22.68 (-69 ± 14) %					CYP2C9 Efficacy (in parenthesis) [4]: 4.89 ± 4.11 (-104 ± 9) %; IC50 [11]: 4.89 µM
CCCC(Cn1cncn1)c1ccc(Cl)cc1Cl (stereo not drawn) [Penconazole]	Inactive	23.57 ± 4.24 (-101 ± 7) %	0.14 ± 0.02 (-137 ± 5) %	Inactive	43.5 µM	0.14 µM	23.6 µM	43.51 ± 17.21 (-88 ± 16) %					CYP2C9 Efficacy (in parenthesis) [4]: 5.66 ± 0.65 (-101 ± 4) %; IC50 [11]: 5.66 µM
C[C@@H]1O[C@@H](O[C@@H]2C=C3CC[C@@H]4[C@H](CC[C@]5(C)[C@@H](c6ccc(=O)oc6)CC[C@]45O)[C@@]3(C)CC2)[C@H](O)[C@H](O)[C@H]1O [Proscillaridin]									33.4 µM	Inactive	Inconclusive activator	Inactive	
Fc1ccc(Oc2ccnc3cc(Cl)cc(Cl)c23)cc1 [Quinoxyfen]	Inactive	0.53 ± 0.32 (-98 ± 2) %	13.35 ± 5.76 (-134 ± 20) %		37 µM	13.3 µM	0.53 µM	37.02 ± 2.51 (-71 ± 14) %					CYP2C9 Efficacy (in parenthesis) [4]: 23.18 ± 7.46 (-103 ± 2) %; IC50 [5]: 59.2 µM; IC50 [11]: 23.2 µM
Cc1c(C(=O)NN2CCCCC2)nn(-c2ccc(Cl)cc2Cl)c1-c1ccc(Cl)cc1 [Rimonabant]										Inactive			AC50 [10]: 4.96 ± 0.93 µM
O=S(=O)(c1ccc(Cl)cc1)c1cc(Cl)c(Cl)cc1Cl [Tetradifon]	Inactive	31.85 ± 3.66 (-38 ± 3) %	0.27 ± 0.02 (-131 ± 10) %	Inactive	49.4 µM	0.27 µM	31.9 µM	49.42 ± 19.58 (-34 ± 2) %					CYP2C9 Efficacy (in parenthesis) [4]: 28.26 ± 0 (-59 ± 2) %; IC50 [11]: 28.3 µM
COc1ccc(CN(CCN(C)C)c2ncccn2)cc1 [Thonzylamine hydrochloride]	Inactive			Inactive	0.7 µM	15.7 µM	18.5 µM						CYP2C9 IC50 (half-maximal inhibitory concentration) [4]: Inactive
CN(C)CCCN1c2ccccc2Sc2ccc(C(F)(F)F)cc21 [Triflupromazine hydrochloride]	Inactive			Inactive	0.55 µM	7.62 µM	3.52 µM						CYP2C9 IC50 (half-maximal inhibitory concentration) [4]: Inactive
CN(C)CCN(Cc1ccccc1)c1ccccn1 [Tripelennamine citrate]	Inactive			Inactive	0.2 µM	35.7 µM	26.5 µM						CYP2C9 IC50 (half-maximal inhibitory concentration) [4]: Inactive
CC[C@H]1OC(=O)[C@H](C)[C@@H](O[C@H]2C[C@@](C)(OC)[C@@H](O)[C@H](C)O2)[C@H](C)[C@@H](O[C@@H]2O[C@H](C)C[C@H](N(C)C)[C@H]2O)[C@](C)(O)C[C@@H](C)C(=O)[C@H](C)[C@@H](O)[C@]1(C)O [erythromycin, reference compound]													IC50 ([10]; IC50 CYP3A4 assay): 0.3 µM
Clc1ccc(C(c2ccc(Cl)cc2)C(Cl)Cl)cc1 [p,p'-DDD]	Inactive	6.46 ± 0.74 (-96 ± 1) %	0.12 ± 0.06 (-136 ± 7) %	Inactive	59 µM	0.12 µM	6.46 µM	59 ± 16.44 (-79 ± 23) %					CYP2C9 Efficacy (in parenthesis) [4]: 5.55 ± 0.76 (-100 ± 3) %; IC50 [11]: 5.55 µM
